Common to all, as to assay type: cell-based
One test concerns LNCaP cells. Description: BrdU incorporation, LNCaP. The conditions noted are these: 48 hrs. As to the method:
(§1) FIGS. 14A-F. Effect of SID 3712502 at indicated concentrations on BrdU incorporation in cultured AR-positive LNCaP (FIG. 14A), C4-2 (FIG. 14B), 22Rv1 (FIG. 14C), LAPC4 (FIG. 14D) cells, and AR-negative DU145 (FIG. 14E) and PC3 (FIG. 14F) cells. Cells were plated in 12-well plates at 2,500 cell per well in RPMI 1640 complete medium. After 24 hrs, the cells were treated with SID 3712502 at the indicated concentrations for 48 hrs and BrdU incorporation was assayed according to manufacturer's instructions (Invitrogen BrdU staining kit; catalog #: 93-3943). The percentage of BrdU-positive cells was determined and then normalized to generate relative BrdU index. Ctrl=DMSO control.

The test system of a further test is AR. Description: Western blot of AR protein in prostate cancer cells. The conditions noted are these: for endogenous AR level (degradation): 48 hrs. As to the method: FIGS. 10A and 10B. Down-regulation of the expression of AR and its downstream target PSA by SID 3712502 in C4-2 (FIG. 10A) and LNCaP (FIG. 10B) cells. Cells in RPMI 1640 complete medium were treated with SID 3712502 or vehicle DMSO at the indicated concentrations for 48 hrs. The cells were then harvested in RIPA buffer for Western blot analysis using antibodies for AR, PSA, and GAPDH. GAPDH was included as a loading control.
FIGS. 13A-C. Effect of SID 3712502 on the expression of AR and PSA in 22Rv1 (FIG. 13A) cells. […] The cells in RPMI 1640 complete medium were treated with SID 3712502 or vehicle DMSO at the indicated concentrations (uM) for 48 h. The cells were then harvested in RIPA buffer for Western blot analysis using antibodies for AR, PSA, and GAPDH. GAPDH was included as a loading control. FIG. 13B. SID 3712502 inhibits AR transactivation of PSA-luciferase reporter. C4-2 cells were transfected with PSA6.1-Luc, GFP-AR, and pRL-CMV and then treated with indicated doses of SID 3712502 for 24 hours. FIG. 13C. SID 3712502 inhibits transactivation of PSA-luciferase reporter by AR(1-665), which lacks LBD. PC3 cells were transfected with GFP-NAR and PSA6.1 Luc overnight prior to treatment with 10 μM SID 3712502 (SID) or DMSO (C) for 24 hours. For luciferase assays, cells were lysed with passive lysis buffer (Promega) and both Firefly and Renilla luciferase activities were read using a Dual-Luciferase Reporter Assay kit (Promega) on a LmaxII384 luminometer (Molecular Devices). Firefly luciferase values were normalized to Renilla (pRL-CMV) or protein of cell lysates. Plotted values represent averaged normalized Firefly luciferase activities, each performed in triplicate, relative to DMSO control. One-way ANOVA was performed with a Bonferroni's Multiple Comparison posttest *** p<0.0001 (C). Student's t-test was performed; ***p=0.0002 (D).

Another test has as its system C4-2 cells. Description: BrdU incorporation, C4-2. The note with it: C4-2, 48 hrs. As to the method:
as §1
(In general: Incorporation of labelled thymidine or its analogues reports DNA synthesis.)

Structures are written as SMILES.

Take `Cc1cccc(N2CCN(C(=O)CSCc3c(C)noc3C)CC2)c1C` [SID 3712502, 2-[(3,5-dimethyl-1,2-oxazol-4-yl)methylsulfanyl]-1-[4-(2,3-dimethylphenyl)piperazin-1-yl]ethanone]: the “proliferation (BrdU incorporation)” value with LNCaP cells and in the test with C4-2 cells was “inhibited the proliferation” in each case. Moreover, the AR protein levels entry with AR (10-50 uM, 48 h, C4-2 and 22Rv1 cells) is “inhibited AR protein levels”. Besides, the “endogenous AR level (degradation)” value in the test with AR (C4-2 cells) and in the test with AR (LNCaP cells) was “can cause degradation of endogenous AR” each time.

The values are drawn from patent publication US10004730B2, “Small molecules targeting androgen receptor nuclear localization and/or level in prostate cancer” (University of Pittsburgh-Of the Commonwealth System of …, priority 2011, dated 2018).
